# According to US20230190870A1, “Method for Treating Lysosomal Storage Diseases with Histatin Peptides” (THE BOARD OF TRUSTEES OF THE UNIVERSITY OF ILLINOIS, priority 2020, published 2023):
# Square brackets hold non-standard residues; d marks the D form. Peptide text beside a SMILES is read from it. pS = N[C@@H](COP(=O)(O)O)C(=O)O
# Tests used:
# [1] = target: T1, TMEM97 (S2R) containing HEK293T membranes (Homo sapiens, UniProt Q5BJF2); test: Radioligand binding/competition assay with [3H]-DTG (UNC PDSP); details: secondary radioligand binding assay; hot ligand [3H]-DTG
# T1 construct: expressed in transfected cells; host or cells: HEK293T (transient overexpression; membranes prepared by UNC PDSP)
# HCE cells = test: Immunofluorescence imaging of internalization and localization; format: cell-based, human
# Method: Immunofluorescence Imaging. HCE cells were seeded on glass coverslips (Fisher Scientific Co.; Pittsburgh, Pa.) within a 6-well plate at 3×10^5 (cells/well) seeding density. […] HCE cells were then fixed in 3.7% paraformaldehyde, permeabilized with phosphate-buffered saline (PBS) containing 0.2% TRITON™ X-100 for 5 minutes, and washed three times for 5 minutes each time in PBS. For blocking, cells were and incubated at room temperature for 30 minutes with 5% bovine serum albumin (BSA) and 5% normal goat serum in PBS. For the Endoplasmic Reticulum (ER) staining, a Cytopainter ER staining kit (Abcam; Cambridge, Mass.) was used, following the manufacturer's instructions. After washing with 1×Assay buffer, cells were incubated with Green Detection Reagent to cover the monolayer of cells. For the detection of Hst1 and TMEM97, mouse anti-Hst1 antibody (Abcam; Cambridge, Mass.), rabbit primary antibody against Hst1 (Mybiosource; San Diego, Calif.), and rabbit anti-TMEM97 antibody (Novus Bio.; Littleton, Colo.) were used. Cells were incubated overnight at 4° C. with primary antibodies, washed three times for 5 minutes each time in PBS before incubation with secondary antibodies for 30 minutes. Cells were then counterstained with 1 μg/mL 4′,6-diamidino-2-phenylindole (DAPI) solution in PBS for 3 minutes, then washed three times with PBS containing 0.05% TRITON™ X-100 for 5 minutes each time, twice with PBS for 5 minutes each time, and once with distilled water for 10 seconds. The cells were mounted in Fluoro gel with Tris buffer (Electron Microscopy Sciences; Hatfield, Pa.) and observed under a confocal microscope (Zeiss LSM 710 Confocal Microscope; Oberkochen, Germany) using a 40×objective. Fluorescent dye sold under the tradename ALEXA FLUOR® 488 NHS Ester (Molecular Probes; Carlsbad, Calif.) was used for making Alexa-488 coupled synthetic Hst1.
# Transfection/Knock-Down of TMEM97. Sub-confluent monolayers of HCE cells in grown in 35-mm six-well plates were transfected with reaction mixtures composed of 100 pmol of small interfering RNA (siRNA) to TMEM97 (Santa Cruz Biotechnology; Dallas, Tex.) for 48 hours and 5 μL of transfection reagent sold under the tradename LIPOFECTAMINE® 2000 (Invitrogen; Carlsbad, Calif.) in culture medium sold under the tradename OPTI-MEMO media (Gibco Life Technologies; Grand Island, N.Y.). Complexes were incubated for 20 minutes at 24° C. and then added to cells at 37° C. Incubation was continued for 24 to 48 hours at 37° C. in 5% CO2. Knock-down (KD) of TMEM97 was confirmed by western blot analysis using a rabbit anti-TMEM97 antibody (Novus Bio.; Littleton, Colo.). […]
# TMEM97 (144-176) = target: T2, TMEM97 (144-176) (Homo sapiens, UniProt Q5BJF2); test: Isothermal titration calorimetry, C-terminal of TMEM97; format: binding; details: ITC; the C-terminal of TMEM97
# T2 construct: made in house; host or cells: chemical solid-phase synthesis (Fmoc, Wang resin)
# T2 sequence (Q5BJF2 144-176 limits assumed): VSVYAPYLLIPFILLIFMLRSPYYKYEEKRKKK
# Method: Isothermal Titration Calorimetry (ITC). The three synthesized peptides, TMEM97 (108-176), TMEM97 (108-143) and TMEM97 (144-176) were prepared in ITC buffer (10 mM Tris, pH 7.4, 150 mM NaCl, 0.05% polysorbate 20) at 40 μM concentration and placed in the sample cell. All ITC experiments were performed while stirring at 395 rpm, in ITC buffer at 25° C. using a VP-ITC titration microcalorimeter from MicroCal™, LLC (Northampton, Mass.). The microsyringe was loaded with a Histatin 1 solution (500 μM in ITC buffer). All titrations were conducted using an initial injection of 2.5 μL followed by 35 identical injections of 5 μL with a duration of 16 seconds (per injection) and a spacing of 210 seconds between injections. The buffer control titration (Histatin 1 into buffer) signals were subtracted from the experimental data. The collected data were evaluated using NITPIC (NIH), SEDPHAT (NIH), and GUSSI (NIH).
# To determine more precisely which segment of TMEM97 is necessary for binding of Hst1, multiple synthetic fragments of TMEM97 were generated (Table 6) and binding to Hst1 was tested using SPR. […] Smaller fragments of the C-terminal of TMEM97 were then constructed to represent the (predicted) luminal (108-143) and cytoplasmic (144-176) exposed segments of the C-terminus of TMEM97 based on modeling experiments previously described. […] SPR results for Hst1 were confirmed using ITC as an orthogonal analytical method.
# [2] = tested on: NPC knockout fibroblasts (NPC1−/−); test: Filipin and LAMP1 staining in NPC knockout fibroblasts; format: cell-based, human
# Method: In addition, cholesterol accumulation in wild type human skin fibroblasts or NPC knockout fibroblasts (NPC1^−/−) were evaluated with or without Hst1 treatment. […] Additionally, LAMP1 lysosomal marker accumulation in untreated NPC1^−/− cells were normalized with Hst1 treatment.
smiles,measurement,setting,value
CC(C)C[C@H](NC(=O)[C@H](Cc1ccc(O)cc1)NC(=O)[C@H](CC(N)=O)NC(=O)[C@H](CO)NC(=O)CNC(=O)[C@H](Cc1ccc(O)cc1)NC(=O)[C@H](CC(=O)O)NC(=O)CNC(=O)[C@H](Cc1ccc(O)cc1)NC(=O)[C@H](Cc1ccccc1)NC(=O)[C@@H]1CCCN1C(=O)[C@H](Cc1ccccc1)NC(=O)[C@H](CCC(=O)O)NC(=O)[C@H](CCCNC(=N)N)NC(=O)[C@H](Cc1c[nH]cn1)NC(=O)[C@H](CO)NC(=O)[C@H](Cc1c[nH]cn1)NC(=O)[C@H](Cc1c[nH]cn1)NC(=O)[C@H](CCCCN)NC(=O)[C@H](CCC(=O)O)NC(=O)[C@H](Cc1c[nH]cn1)NC(=O)[C@H](Cc1ccccc1)NC(=O)[C@H](CCCCN)NC(=O)[C@H](CCCNC(=N)N)NC(=O)[C@H](CCCNC(=N)N)NC(=O)[C@H](Cc1ccc(O)cc1)NC(=O)CNC(=O)[C@H](Cc1c[nH]cn1)NC(=O)[C@H](Cc1c[nH]cn1)NC(=O)[C@H](CCCNC(=N)N)NC(=O)[C@H](CCCCN)NC(=O)[C@H](CCC(=O)O)NC(=O)[C@H](Cc1c[nH]cn1)NC(=O)[C@H](COP(=O)(O)O)NC(=O)[C@@H](N)CC(=O)O)C(=O)N[C@@H](Cc1ccc(O)cc1)C(=O)N[C@@H](CC(=O)O)C(=O)N[C@@H](CC(N)=O)C(=O)O [Hst1] (H-D[pS]HEKRHHGYRRKFHEKHHSHREFPFYGDYGSNYLYDN-OH; N-terminus and C-terminus assumed),Ki,[1],0.239 µM
same,co-immunolocalization with TMEM97,HCE cells; exogenously applied Hst1,significant overlap
same,co-localization with endoplasmic reticulum stain,HCE cells; exogenously applied Hst1,good co-localization
same,internalization and/or localization in TMEM97 KD cells,HCE cells; siRNA knock-down of TMEM97,significantly disrupted internalization and/or localization
same,Kd,TMEM97 (144-176),0.46 ± 0.12 µM
same,ΔH,TMEM97 (144-176),-3310 ± 117 kJ/mol
same,ΔS,TMEM97 (144-176),−2.28(±0.37)×10^3 cal/mol K
same,LAMP1 lysosomal marker accumulation,[2],normalized
same,cholesterol accumulation (Filipin stained cells),[2],reduction in cholesterol accumulation
